Patent US20110213026A1, “EXTRACTS WITH LIVER-X-RECEPTOR MODULATORS, COMPOUNDS AND THEIR USE ESPECIALLY IN WEIGHT CONTROL” (INTERMED DISCOVERY GMBH, priority 2007, published 2011)

How the values were obtained:
[1] = target: T1, LXR ligand binding domain (GST-LXR LBD) (Homo sapiens, UniProt Q13133); assay: In vitro LXR assay (HTR-FRET, coactivator b-SRC1 recruitment); type: biochemical; details: FRET 12-point dose response
T1 sequence (Q13133 209-447): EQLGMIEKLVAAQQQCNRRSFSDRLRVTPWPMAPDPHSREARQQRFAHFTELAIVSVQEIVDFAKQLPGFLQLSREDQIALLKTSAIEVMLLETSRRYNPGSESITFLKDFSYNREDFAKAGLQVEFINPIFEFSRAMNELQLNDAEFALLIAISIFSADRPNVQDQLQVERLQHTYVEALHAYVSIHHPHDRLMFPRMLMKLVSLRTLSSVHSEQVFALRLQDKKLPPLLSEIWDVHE
Description: The LXR assay is configured using time-resolved fluorescence resonance energy transfer technology (HTR-FRET) (see Albers M, Blume B, Schlueter T, Wright MB, Kober I, Kremoser C, Deuschle U, Koegl M; “A novel principle for partial agonism of liver X receptor ligands. Competitive recruitment of activators and repressors”. J. Biol. Chem. 2006 24;281(8) 4920-30; and Chin J, Adams A D, Bouffard A, Green A, Lacson R G, Smith T, Fischer P A, Menke J G, Sparrow C P, Mitnaul L J; “Miniaturization of cell-based beta-lactamase-dependent FRET assays to ultra-high throughput formats to identify agonists of human liver X receptors”. Assay Drug Dev. Technol. 2003 1(6):777-87).
In the presence of an agonist, a fusion protein of glutathione S-transferase (GST) and LXR ligand binding domain (GST-LXR LBD) associates with a biotin-labeled nuclear receptor coactivator (b-SRC1). A fluorescent signal is detected in the presence of Eu-labeled anti GST antibodies and streptavidin-labeled allophycocyanin (APC). FRET is made possible by agonist-dependent close interaction of the test proteins.
Compounds which act as agonists at the LXR ligand binding domain are detected by an increase in time-resolved fluorescence. This LXR-FRET is performed as described by Albers et al. (loc. cit.).
FRET-active compounds are assayed in a FRET 12-point dose response experiment to determine the EC50—values of the compounds mentioned in the following table 9: […]

[2] = target: NPFF2 receptor (Homo sapiens, UniProt Q9Y5X5); details: literature report; cited from earlier work
NPFF2 receptor, sequence (Q9Y5X5 whole entry): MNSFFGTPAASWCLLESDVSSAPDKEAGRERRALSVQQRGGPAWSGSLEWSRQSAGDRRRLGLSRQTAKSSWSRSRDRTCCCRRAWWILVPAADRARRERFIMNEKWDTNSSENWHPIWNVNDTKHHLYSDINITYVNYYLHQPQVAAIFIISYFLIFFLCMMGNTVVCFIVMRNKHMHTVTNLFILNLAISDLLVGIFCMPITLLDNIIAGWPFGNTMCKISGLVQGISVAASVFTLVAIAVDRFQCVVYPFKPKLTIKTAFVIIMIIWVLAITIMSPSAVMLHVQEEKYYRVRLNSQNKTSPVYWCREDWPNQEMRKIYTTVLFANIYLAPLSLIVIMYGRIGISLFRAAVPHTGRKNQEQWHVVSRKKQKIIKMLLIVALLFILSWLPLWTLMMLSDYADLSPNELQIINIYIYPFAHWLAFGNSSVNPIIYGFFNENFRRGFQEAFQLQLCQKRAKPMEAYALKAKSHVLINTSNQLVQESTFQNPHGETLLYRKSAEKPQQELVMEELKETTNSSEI

[3] = In vivo assay in rats: 8 week feeding study, body weight and body fat; set-up: species or system Sprague-Dawley (SD) rats; details: high fat diet, 0.1% in chow, 8 weeks, versus control groups
Method: The “further enriched extract” of Example 2 (also called IMD-XT0003 above and below), containing the LXRα active compounds is prepared and tested using six week old, none-adult, male Sprague-Dawley (SD) rats (Charles Rivers, Sulzfeld, Germany). The extract is mixed with the chow (ssniff Spezialdiäten GmbH, Soest, Germany) to a final concentration of 0.1% by weight and fed for 8 weeks in two different treatment regimes: • Balanced diet (standardised to 4% fat) • High fat diet (standardised 34% fat) Controls obtain the same diet without IMD-XT0003 or other anti-obesity additives. Body weight is studied and analysed every week, body fat and mineral bone density are analysed by DEXA (scanner, see Example 3) in week 0, in week 4 and at the last day of the study in week 8. Furthermore, the white body fat weight is determined after removal of the tissue at the end of the feeding study in week 8. For the DEXA measurements the same apparatuses and methodology are used as described in example 3. As a control experiment within the high fat diet, epigallocatechin-3-gallate (EGCG, Chengdu Purification Technology Development Co. Ltd, Chengdu, China) in pure form is used as the standard for comparison of potency and differentiation as well as benchmark against competing compounds or formulations against obesity. […]

Row | Compound | EC50 [1] | NPFF2 receptor agonism [2] | also measured
1 | COc1c2c(cc3c1-c1c(cc4c(c1OC)OCO4)CC(C)C(C)C3)OCO2 (stereo not shown) [Schizandrin C, 3,3′-Dimethoxy-4,5:4′,5′-bis(methylenedioxy)-2,2′-cyclolignan] | 5.6 µM |  | 
2 | COc1cc2c(c(OC)c1OC)-c1c(cc(OC)c(OC)c1OC)CC(C)C(C)C2 (stereo not shown) [Desoxyschizandrol A, 3,3′,4,4′,5,5′-Hexamethoxy-2,2′-cyclolignan] | > 10 µM |  | 
3 | COc1cc2c(c(OC)c1OC)-c1c(cc3c(c1OC)OCO3)[C@H](OC(=O)c1ccccc1)[C@@](C)(O)[C@@H](C)C2 [Gomisin G] |  | potent NPFF2 receptor agonists | 
4 | epigallocatechin-3-gallate [EGCG] |  |  | body fat accumulation [3]: No effects; body weight accumulation [3]: No effects
5 | COc1cc2c(c(OC)c1OC)-c1c(cc3c(c1OC)OCO3)CC(C)C(C)C2 (stereo not shown) [Gomisin N, 3,3,4,5-Tetramethoxy-4′,5′-methylenedioxy-2,2′-cyclolignan] | 10.6 µM |  | 
6 | COc1cc2c(c(OC)c1OC)-c1c(cc(OC)c(OC)c1OC)[C@H](OC(=O)c1ccccc1)[C@@](C)(O)[C@@H](C)C2 [benzoylgomisin Q] |  | potent NPFF2 receptor agonists | 
